# US20090264664A1, “PREPARATION FOR EXTERNAL APPLICATION COMPRISING SALT OF MAST CELL DEGRANULATION INHIBITOR HAVING CARBOXYL GROUP WITH ORGANIC AMINE” (MEDRX CO., LTD., priority 2005, published 2009)
# Assay: Solubility of tranilast in various solvents with or without triisopropanolamine (Example 3)
# Type: physicochemical
# Parameters: key: ∘: complete dissolution of tranilast; x: no dissolution of tranilast
# Conditions: tranilast 1 wt %
# Method: For preparation of test solutions (blending corresponding to 1 mol of triisopropanolamine), tranilast (1 wt %) and triisopropanolamine (0.56 wt %) were added, and glycerol, propylene glycol, butylene glycol, salicylic acid ethylene glycol, diethyl sebacate and isopropyl myristate were used as a balance to achieve 100 wt %, whereby each test solution was prepared.
# For preparation of comparison control (without triisopropanolamine), tranilast (1 wt %) was added, and propylene glycol, salicylic acid ethylene glycol, diethyl sebacate and isopropyl myristate were used as a balance to achieve 100 wt %, whereby each test solution was prepared.
# Using the test solutions and comparative controls prepared above, the solubility of tranilast in various solvents with or without triisopropanolamine was examined.
structure (smiles),measurement,setting,value
CC(O)CN(CC(C)O)CC(C)O.COc1ccc(/C=C/C(=O)Nc2ccccc2C(=O)O)cc1OC [1:1 salt with triisopropanolamine],solubility of tranilast in solvent,butylene glycol,∘
same,solubility of tranilast in solvent,diethyl sebacate,∘
same,solubility of tranilast in solvent,glycerol,∘
same,solubility of tranilast in solvent,isopropyl myristate,x
same,solubility of tranilast in solvent,propylene glycol,∘
same,solubility of tranilast in solvent,salicyl acid ethylene glycol,∘
